Here are results for seven molecules from ChEMBL document CHEMBL1132710, “Antineoplastic agents. 410. Asymmetric hydroxylation of trans-combretastatin A-4” (1999).

Type in all cases: functional
The subject of one assay is BXPC-3. Nature of the assay: Compound was evaluated against Human cell line pancreas BXPC-3.
Another assay has as its system SK-N-SH. Nature of the assay: Compound was evaluated against Human cell line neuroblast SK-N-SH.
The subject of a further assay is NCI-H460. Nature of the assay: Compound was evaluated against Human cell line lung-NSC NCI-H460.
Another assay relates to KM-20L2. Nature of the assay: Compound was evaluated against Human cell line colon KM20L2.
For a further assay, the system named is DU-145. Nature of the assay: Compound was evaluated against Human cell line prostate DU-145.
A further assay concerns OVCAR-3. Nature of the assay: Compound was evaluated against Human cell line ovarian OVCAR-3.
For the next assay, the system named is P388. Nature of the assay: Compound was evaluated against P388 mouse Leukemia cell line. The following applies: read-out: ED50 (the source's name).
In a further assay the test system is SF-295. Nature of the assay: Compound was evaluated against Human cell line CNS SF-295.
A further assay deals with SW-1736. Nature of the assay: Compound was evaluated against Human cell line thyroid SW1736.
The next assay has as its system Neisseria gonorrhoeae. Nature of the assay: Antimicrobial activity against Neisseria gonorrhoeae.
A further assay deals with FaDu. Nature of the assay: Compound was evaluated against Human cell line pharynx FADU.
The subject of a further assay is SK-MEL-5. Nature of the assay: Compound was evaluated against Human cell line melanoma SK-MEL-5.
The test system of the next assay is A498. Nature of the assay: Compound was evaluated against Human cell line renal A498.
The subject of a further assay is Staphylococcus aureus. Nature of the assay: Antimicrobial activity against Staphylococcus aureus.

Converted amounts (≈) assume the structure as drawn. Where only a bound is given, the exact number is not on record here.

A word on the GI50: it is the concentration that inhibits growth by half. Read a high GI50 as lower sensitivity of the cells. Regarding `COc1ccc(/C=C\c2cc(OC)c(OC)c(OC)c2)cc1O` [COMBRETASTATIN A4], the GI50 in the assay with BXPC-3 is 0.39 µg/mL (≈ 1.23 µM); in the assay on SK-N-SH it was 0.00026 µg/mL (≈ 0.000822 µM); with NCI-H460, 0.00056 µg/mL (≈ 0.00177 µM); in the assay with KM-20L2, 0.061 µg/mL (≈ 0.193 µM); in the assay on DU-145, 0.00076 µg/mL (≈ 0.0024 µM); in the assay on OVCAR-3 it was under 0.001 µg/mL. Moreover, the GI50 in the assay with SF-295 is under 0.001 µg/mL; with SW-1736, 0.00071 µg/mL (≈ 0.00224 µM); with FaDu, 0.00065 µg/mL (≈ 0.00205 µM); in the assay with SK-MEL-5, 0.0002 µg/mL (≈ 0.000632 µM). The EC50 in the assay with P388 was 0.00027 µg/mL (≈ 0.000853 µM). In the assay on Neisseria gonorrhoeae, this molecule returned an MIC of 50 ug disk-1.
Take `COc1ccc(CCc2cc(OC)c(OC)c(OC)c2)c(O)c1O`: in the assay with Neisseria gonorrhoeae, the MIC was 25 ug disk-1.
The molecule `COc1ccc(/C=C\c2cc(OC)c(OC)c(OC)c2)cc1OP(=O)([O-])O.[Na+]` yielded an MIC with Neisseria gonorrhoeae of 100 ug disk-1.
Regarding `COc1ccc([C@@H](O)[C@H](O)c2cc(OC)c(OC)c(OC)c2)cc1O`, the GI50 was over 10 µg/mL in the assay on BXPC-3; 1.5 µg/mL (≈ 4.28 µM) in the assay on SK-N-SH; 4.4 µg/mL (≈ 12.6 µM) in the assay on NCI-H460; 8.2 µg/mL (≈ 23.4 µM) in the assay on KM-20L2; 3.5 µg/mL (≈ 9.99 µM) in the assay on DU-145; 4.5 µg/mL (≈ 12.8 µM) in the assay with OVCAR-3. Also, the GI50 in the assay with SF-295 is 5.7 µg/mL (≈ 16.3 µM); in the assay with A498, over 10 µg/mL; in the assay with SW-1736, 6.1 µg/mL (≈ 17.4 µM); in the assay on FaDu it was 2.1 µg/mL (≈ 5.99 µM); in the assay with SK-MEL-5 it was 4.9 µg/mL (≈ 14 µM). The EC50 in the assay with P388 is 19 µg/mL (≈ 54.2 µM).
On to `COc1ccc(/C=C\c2cc(OC)c(OC)c(OC)c2)c(O)c1O` [COMBRETASTATIN A-1], for which the MIC was found to be 100 ug disk-1 in the assay on Staphylococcus aureus and 50 ug disk-1 in the assay with Neisseria gonorrhoeae.
On to `COc1ccc([C@H](O)[C@@H](O)c2cc(OC)c(OC)c(OC)c2)cc1O`, for which the GI50 turned out to be 3.9 µg/mL (≈ 11.1 µM) in the assay with BXPC-3; 0.28 µg/mL (≈ 0.799 µM) in the assay on SK-N-SH; 2.5 µg/mL (≈ 7.14 µM) in the assay on NCI-H460; 0.52 µg/mL (≈ 1.48 µM) with KM-20L2; 2.1 µg/mL (≈ 5.99 µM) with DU-145; 0.38 µg/mL (≈ 1.08 µM) with OVCAR-3. For the same molecule, the GI50 came out at 0.52 µg/mL (≈ 1.48 µM) in the assay with SF-295; 0.91 µg/mL (≈ 2.6 µM) with A498; 1.8 µg/mL (≈ 5.14 µM) with SW-1736; 0.6 µg/mL (≈ 1.71 µM) in the assay on FaDu; 0.7 µg/mL (≈ 2 µM) in the assay on SK-MEL-5. Further, the EC50 in the assay on P388 was 2 µg/mL (≈ 5.71 µM).
With `COc1ccc([C@@H](O)Cc2cc(OC)c(OC)c(OC)c2)cc1O`, the GI50 in the assay with SK-N-SH was over 10 µg/mL; in the assay on NCI-H460, 9 µg/mL (≈ 26.9 µM); in the assay with DU-145, 7.6 µg/mL (≈ 22.7 µM); in the assay on SW-1736, over 10 µg/mL; in the assay on FaDu, 4.8 µg/mL (≈ 14.4 µM). Moreover, the EC50 in the assay with P388 turned out to be 32.9 µg/mL (≈ 98.4 µM).
